# Measurements taken from patent US20090068290A1, “BIFEPRUNOX DOSES FOR TREATING SCHIZOPHRENIA” (priority 2006, published 2009).
# How the values were obtained:
# Format in all cases: in vivo, human
# [1] = test system: adult subjects with schizophrenia; experiment: Adverse events (TEAE, SAE, discontinuation, EPS-related TEAE, anticholinergic use), Clinical Study One; settings: for safety and tolerability: bifeprunox 5, 10, 20 mg, 6 weeks
# Protocol: METHODOLOGY: This was a randomized, double-blind, fixed-dose, placebo-controlled, risperidone-referenced, parallel group, multi-center study in adult subjects with schizophrenia. There were five treatment groups in this study. […] Study medication was administered once daily. After Baseline measurements were performed, the titration phase was begun. Bifeprunox treated subjects were titrated up to 5 mg, 10 mg or 20 mg according to a standardized titration schedule (Day 1: 0.125 mg, Day 2: 0.25 mg, Day 3: 0.5 mg, Day 4: 1.0 mg, Day 5: 2.0 mg, Day 6: 5.0 mg, Day 7: 10.0 mg, Day 8: 20 mg).
# [2] = test system: adult subjects with schizophrenia; experiment: CGI Severity of Illness score, Clinical Study One; parameters: Change from Baseline in CGI Severity of Illness Score, Median: scale not given here; settings: for Change from Baseline in CGI Severity of Illness Score, Mean (S.D.) / Change from Baseline in CGI Severity of Illness Score, Median / Change from Baseline in CGI Severity of Illness Score, Trt Effect (bifeprunox—placebo): ITT population
# Protocol: (§1) There were five treatment groups in this study. […] Study medication was administered once daily. After Baseline measurements were performed, the titration phase was begun. Bifeprunox treated subjects were titrated up to 5 mg, 10 mg or 20 mg according to a standardized titration schedule (Day 1: 0.125 mg, Day 2: 0.25 mg, Day 3: 0.5 mg, Day 4: 1.0 mg, Day 5: 2.0 mg, Day 6: 5.0 mg, Day 7: 10.0 mg, Day 8: 20 mg). When the assigned dose was reached, subjects were maintained at that dose for the remainder of the six-week treatment period.
# (§2) The change in the Positive and Negative Symptom Scale (PANSS) total score, from baseline to endpoint, was the primary outcome measure. Secondary efficacy measures included: PANSS positive, PANSS negative, PANSS general psychopathology (GPP) score, PANSS-derived Brief Psychiatric Rating Scale (BPRS) score, Clinical Global Impressions-Severity of Illness (CGI-S), CGI-Improvement (CGI-I) scores, and responder rates. Safety and tolerability evaluations included extrapyramidal symptoms (EPS), weight gain, lipid profile, and serum prolactin.
# [3] = test system: adult subjects with schizophrenia; experiment: PANSS general psychopathology subscale score, Clinical Study One; settings: for Change from Baseline in PANSS General Psychopathology Subscale Score, Mean (S.D.) / Change from Baseline in PANSS General Psychopathology Subscale Score, Median / Trt Effect (versus placebo), PANSS General Psychopathology Subscale Score: ITT population; for Trt Effect (versus placebo), PANSS General Psychopathology Subscale Score: ANCOVA
# Protocol: as §1, §2
# [4] = Bifeprunox 10 mg, Endpoint LOCF
# [5] = Bifeprunox 20 mg, Endpoint LOCF
smiles,measurement,setting,value
"O=c1[nH]c2cccc(N3CCN(Cc4cccc(-c5ccccc5)c4)CC3)c2o1 [Bifeprunox, 7-[4-([1,1′-biphenyl]-3-ylmethyl)-1-piperazinyl]-2(3H)-benzoxazolone]","TARDIVE DYSKINESIA, %",[1]; BX 20 mg,(<1%)
same,"TREMOR, %",[1]; BX 20 mg,(<1%)
same,subjects with at least one AE that led to discontinuation,[1]; bifeprunox 5 mg,11%
same,subjects with at least one TEAE,[1]; bifeprunox 5 mg,89%
same,subjects with at least one AE that led to discontinuation,[1]; bifeprunox 10 mg,14%
same,subjects with at least one TEAE,[1]; bifeprunox 10 mg,87%
same,incidence of aggravated schizophrenia NOS (SAE),[1]; bifeprunox 20 mg,7%
same,subjects with at least one AE that led to discontinuation,[1]; bifeprunox 20 mg,10%
same,subjects with at least one TEAE,[1]; bifeprunox 20 mg,83%
same,subjects with at least one severe TEAE,[1]; bifeprunox 20 mg,10%
same,suicide attempt,[1]; bifeprunox 20 mg,2%
same,safety and tolerability,[1],safe and well tolerated at all dose levels
same,safety and tolerability,[1]; listed as bifeprunox,safe and well tolerated
same,subjects with at least one SAE,"[1]; bifeprunox groups (5, 10, 20 mg)",12-15%
same,rates of EPS,"[1]; bifeprunox, 6 weeks (Example 4)",comparable to placebo
same,"CGI severity of illness score, treatment effect (bifeprunox—placebo)","[2]; Bifeprunox 5 mg, Endpoint LOCF",−0.31
same,"Change from Baseline in CGI Severity of Illness Score, Mean (S.D.)","[2]; Bifeprunox 5 mg, Endpoint LOCF",−0.58 (1.10)
same,"Change from Baseline in CGI Severity of Illness Score, Median","[2]; Bifeprunox 5 mg, Endpoint LOCF",0.0
same,"Change from Baseline in CGI Severity of Illness Score, Trt Effect (bifeprunox—placebo)","[2]; Bifeprunox 5 mg, Endpoint LOCF",−0.31
same,"Change from Baseline in CGI Severity of Illness Score, Mean (S.D.)","[2]; Bifeprunox 5 mg, Week 1, LOCF",−0.18 (0.68)
same,"Change from Baseline in CGI Severity of Illness Score, Median","[2]; Bifeprunox 5 mg, Week 1, LOCF",0.0
same,"Change from Baseline in CGI Severity of Illness Score, Mean (S.D.)","[2]; Bifeprunox 5 mg, Week 2, LOCF",−0.37 (0.83)
same,"Change from Baseline in CGI Severity of Illness Score, Median","[2]; Bifeprunox 5 mg, Week 2, LOCF",0.0
same,"Change from Baseline in CGI Severity of Illness Score, Mean (S.D.)","[2]; Bifeprunox 5 mg, Week 3, LOCF",−0.47 (0.90)
same,"Change from Baseline in CGI Severity of Illness Score, Median","[2]; Bifeprunox 5 mg, Week 3, LOCF",0.0
same,"Change from Baseline in CGI Severity of Illness Score, Mean (S.D.)","[2]; Bifeprunox 5 mg, Week 4, LOCF",−0.52 (1.01)
same,"Change from Baseline in CGI Severity of Illness Score, Median","[2]; Bifeprunox 5 mg, Week 4, LOCF",0.0
same,"CGI severity of illness score, treatment effect (bifeprunox—placebo)",[2]; [4],0.12
same,"Change from Baseline in CGI Severity of Illness Score, Mean (S.D.)",[2]; [4],−0.18 (1.04)
same,"Change from Baseline in CGI Severity of Illness Score, Median",[2]; [4],0.0
same,"Change from Baseline in CGI Severity of Illness Score, Trt Effect (bifeprunox—placebo)",[2]; [4],0.12
same,"Change from Baseline in CGI Severity of Illness Score, Mean (S.D.)","[2]; Bifeprunox 10 mg, Week 1, LOCF",0.13 (0.75)
same,"Change from Baseline in CGI Severity of Illness Score, Median","[2]; Bifeprunox 10 mg, Week 1, LOCF",0.0
same,"Change from Baseline in CGI Severity of Illness Score, Mean (S.D.)","[2]; Bifeprunox 10 mg, Week 2, LOCF",−2.3 (0.92)
same,"Change from Baseline in CGI Severity of Illness Score, Median","[2]; Bifeprunox 10 mg, Week 2, LOCF",0.0
same,"Change from Baseline in CGI Severity of Illness Score, Mean (S.D.)","[2]; Bifeprunox 10 mg, Week 3, LOCF",−0.22 (1.01)
same,"Change from Baseline in CGI Severity of Illness Score, Median","[2]; Bifeprunox 10 mg, Week 3, LOCF",0.0
same,"Change from Baseline in CGI Severity of Illness Score, Mean (S.D.)","[2]; Bifeprunox 10 mg, Week 4, LOCF",−0.16 (0.99)
same,"Change from Baseline in CGI Severity of Illness Score, Median","[2]; Bifeprunox 10 mg, Week 4, LOCF",0.0
same,"Change from Baseline in CGI Severity of Illness Score, Mean (S.D.)",[2]; [5],−0.52 (0.96)
same,"Change from Baseline in CGI Severity of Illness Score, Median",[2]; [5],0.0
same,"Change from Baseline in CGI Severity of Illness Score, Trt Effect (bifeprunox—placebo)",[2]; [5],−0.19
same,"Change from Baseline in CGI Severity of Illness Score, Mean (S.D.)","[2]; Bifeprunox 20 mg, Week 1, LOCF",−0.31 (0.74)
same,"Change from Baseline in CGI Severity of Illness Score, Median","[2]; Bifeprunox 20 mg, Week 1, LOCF",0.0
same,"Change from Baseline in CGI Severity of Illness Score, Mean (S.D.)","[2]; Bifeprunox 20 mg, Week 2, LOCF",−0.50 (0.85)
same,"Change from Baseline in CGI Severity of Illness Score, Median","[2]; Bifeprunox 20 mg, Week 2, LOCF",0.0
same,"Change from Baseline in CGI Severity of Illness Score, Mean (S.D.)","[2]; Bifeprunox 20 mg, Week 3, LOCF",−0.57 (0.90)
same,"Change from Baseline in CGI Severity of Illness Score, Median","[2]; Bifeprunox 20 mg, Week 3, LOCF",0.0
same,"Change from Baseline in CGI Severity of Illness Score, Mean (S.D.)","[2]; Bifeprunox 20 mg, Week 4, LOCF",−0.57 (0.89)
same,"Change from Baseline in CGI Severity of Illness Score, Median","[2]; Bifeprunox 20 mg, Week 4, LOCF",0.0
same,"CGI severity of illness score, treatment effect (bifeprunox—placebo)","[2]; bifeprunox 20 mg, Endpoint LOCF",−0.19
same,"Change from Baseline in PANSS General Psychopathology Subscale Score, Mean (S.D.)","[3]; Bifeprunox 5 mg, Endpoint LOCF",−4.4 (9.4)
same,"Change from Baseline in PANSS General Psychopathology Subscale Score, Median","[3]; Bifeprunox 5 mg, Endpoint LOCF",−5
same,"Trt Effect (versus placebo), PANSS General Psychopathology Subscale Score","[3]; Bifeprunox 5 mg, Endpoint LOCF",−2.2
same,"Change from Baseline in PANSS General Psychopathology Subscale Score, Mean (S.D.)","[3]; Bifeprunox 5 mg, Week 1, LOCF",−1.7 (7.6)
same,"Change from Baseline in PANSS General Psychopathology Subscale Score, Median","[3]; Bifeprunox 5 mg, Week 1, LOCF",−2
same,"Change from Baseline in PANSS General Psychopathology Subscale Score, Mean (S.D.)","[3]; Bifeprunox 5 mg, Week 2, LOCF",−2.8 (8.1)
same,"Change from Baseline in PANSS General Psychopathology Subscale Score, Median","[3]; Bifeprunox 5 mg, Week 2, LOCF",−2
same,"Change from Baseline in PANSS General Psychopathology Subscale Score, Mean (S.D.)","[3]; Bifeprunox 5 mg, Week 3, LOCF",−3.3 (8.8)
same,"Change from Baseline in PANSS General Psychopathology Subscale Score, Median","[3]; Bifeprunox 5 mg, Week 3, LOCF",−3
same,"Change from Baseline in PANSS General Psychopathology Subscale Score, Mean (S.D.)","[3]; Bifeprunox 5 mg, Week 4, LOCF",−3.7 (9.1)
same,"Change from Baseline in PANSS General Psychopathology Subscale Score, Median","[3]; Bifeprunox 5 mg, Week 4, LOCF",−4
same,"Change from Baseline in PANSS General Psychopathology Subscale Score, Mean (S.D.)",[3]; [4],−2.0 (9.2)
same,"Change from Baseline in PANSS General Psychopathology Subscale Score, Median",[3]; [4],−1
same,"Trt Effect (versus placebo), PANSS General Psychopathology Subscale Score",[3]; [4],0.4
same,"Change from Baseline in PANSS General Psychopathology Subscale Score, Mean (S.D.)","[3]; Bifeprunox 10 mg, Week 1, LOCF",−0.9 (6.2)
same,"Change from Baseline in PANSS General Psychopathology Subscale Score, Median","[3]; Bifeprunox 10 mg, Week 1, LOCF",0
same,"Change from Baseline in PANSS General Psychopathology Subscale Score, Mean (S.D.)","[3]; Bifeprunox 10 mg, Week 2, LOCF",−1.5 (7.7)
same,"Change from Baseline in PANSS General Psychopathology Subscale Score, Median","[3]; Bifeprunox 10 mg, Week 2, LOCF",−2
same,"Change from Baseline in PANSS General Psychopathology Subscale Score, Mean (S.D.)","[3]; Bifeprunox 10 mg, Week 3, LOCF",−1.7 (9.0)
same,"Change from Baseline in PANSS General Psychopathology Subscale Score, Median","[3]; Bifeprunox 10 mg, Week 3, LOCF",−1
same,"Change from Baseline in PANSS General Psychopathology Subscale Score, Mean (S.D.)","[3]; Bifeprunox 10 mg, Week 4, LOCF",−1.4 (8.8)
same,"Change from Baseline in PANSS General Psychopathology Subscale Score, Median","[3]; Bifeprunox 10 mg, Week 4, LOCF",−1
same,"Change from Baseline in PANSS General Psychopathology Subscale Score, Mean (S.D.)",[3]; [5],−5.1 (8.8)
same,"Change from Baseline in PANSS General Psychopathology Subscale Score, Median",[3]; [5],−5
same,"Trt Effect (versus placebo), PANSS General Psychopathology Subscale Score",[3]; [5],−2.8
same,"Change from Baseline in PANSS General Psychopathology Subscale Score, Mean (S.D.)","[3]; Bifeprunox 20 mg, Week 1, LOCF",−3.0 (6.4)
same,"Change from Baseline in PANSS General Psychopathology Subscale Score, Median","[3]; Bifeprunox 20 mg, Week 1, LOCF",−2
same,"Change from Baseline in PANSS General Psychopathology Subscale Score, Mean (S.D.)","[3]; Bifeprunox 20 mg, Week 2, LOCF",−4.4 (7.5)
same,"Change from Baseline in PANSS General Psychopathology Subscale Score, Median","[3]; Bifeprunox 20 mg, Week 2, LOCF",−5
same,"Change from Baseline in PANSS General Psychopathology Subscale Score, Mean (S.D.)","[3]; Bifeprunox 20 mg, Week 3, LOCF",−5.2 (7.9)
same,"Change from Baseline in PANSS General Psychopathology Subscale Score, Median","[3]; Bifeprunox 20 mg, Week 3, LOCF",−6
same,"Change from Baseline in PANSS General Psychopathology Subscale Score, Mean (S.D.)","[3]; Bifeprunox 20 mg, Week 4, LOCF",−5.2 (8.4)
same,"Change from Baseline in PANSS General Psychopathology Subscale Score, Median","[3]; Bifeprunox 20 mg, Week 4, LOCF",−6
same,"PANSS general psychopathology score, estimate of the treatment effect","[3]; bifeprunox 5 mg, LOCF",−2.2
same,"PANSS general psychopathology score, estimate of the treatment effect","[3]; bifeprunox 10 mg, LOCF",0.4
same,"PANSS general psychopathology score, estimate of the treatment effect","[3]; bifeprunox 20 mg, LOCF",−2.8
